# Measured values reported in PMC10537410 (Pharmaceutics, 2023).
# Assay: In vitro dissolution in simulated lung fluid
# Type: physicochemical
# Settings: simulated lung fluid with 0.01% w/v DPPC, ca. 2 mg CsA in 100 mL, 100 r/min, 37 °C, HPLC; n = 3
# Protocol: In vitro dissolution was carried out in simulated lung fluid. Simulated lung fluid was prepared with some modifications according to the literature. The composition of simulated lung fluid included NaCl (6.40 g/L), CaCl2·2H2O (0.26 g/L), Na2HPO4 (0.15 g/L), NaHCO3 (2.70 g/L), NH4Cl (0.12 g/L), MgCl2 (0.10 g/L), Na2SO4·10H2O (0.18 g/L), Na3citrate·2H2O (0.16 g/L), Glycine (0.19 g/L), and dipalmitoylphosphatidylcholine (0.01% w/v). Raw CsA and formulation (ca. 2 mg CsA) were dispersed in 100 mL dissolution medium and placed in a magnetic stirrer (MR Hei-Tec, Heidolph, Germany) maintained at 100 r/min and 37 °C. At predetermined intervals, suspensions (0.5 mL) were withdrawn and centrifuged. The supernatants were diluted with 0.5 mL of ethanol and determined by the HPLC method, as described in Section 2.3.
substance,measurement,value
Cyclosporine A [raw CsA],Release amount within 24 h,≤ 24%
